From patent publication US20240245770A1, “COMPOSITIONS AND METHODS FOR TREATING NEUROMUSCULAR DISORDERS” (The Regents of the University of California, priority 2019, published 2024)

System: serum cytokine/chemokine/growth factor/ligands of ALS patient
Experiment: Serum Luminex, before and after NAC treatment
Assay type: in vivo, human
Experimental: (§1) Serum Luminex. Serum from patients were used to determine the levels of cytokine/chemokine/growth factor/ligands secretion using multiplex luminex assay. Scatter plot was prepared using the levels of cytokine/chemokine/growth factor/ligands in serum obtained at different dates from patients as compared to controls.
Serum Luminex. Serum from patients were used to determine the levels of cytokine/chemokine/growth factor/ligands secretion using multiplex luminex assay.
as §1

[1] = JC sera Apr. 30, 2020 (NAC infusion)
[2] = JC sera Jun. 22, 2020 (NAC infusion)
[3] = JC sera Jun. 24, 2020 (NAC infusion)
[4] = JC sera May 7, 2020 (NAC infusion)
[5] = JC sera May 14, 2020 (NAC infusion)
[6] = JC sera May 21, 2020 (NAC infusion)
[7] = JC sera May 28, 2020 (NAC infusion)
[8] = serum of ALS patient after NAC treatment

Work on `CC(=O)N[C@@H](CS)C(=O)O` [NAC, N-Acetyl-Cysteine] yielded an IL-5 (JC sera Apr. 30, 2020) of 2 pg/mL, an IL-7 (JC sera Apr. 30, 2020) of 6.25 pg/mL and an IL-8 (JC sera Apr. 30, 2020) of 4.28 pg/mL. For the same compound, the IL-21 (JC sera Apr. 30, 2020) was 0.86 pg/mL, the IL-23 (JC sera Apr. 30, 2020) was 138.55 pg/mL and the MIP-1a (JC sera Apr. 30, 2020) was 11.35 pg/mL. It also gave an MIP-1b (JC sera Apr. 30, 2020) of 17.78 pg/mL, a TNFa (JC sera Apr. 30, 2020) of 8.46 pg/mL and a Franktalkine [1] of 35.49 pg/mL. The GM-CSF [1] was 59.71 pg/mL, the IFNg [1] was 9.14 pg/mL and the IL-1b [1] was 1.03 pg/mL. It also gave an IL-10 [1] of 5.71 pg/mL, an IL-12p70 [1] of 2.32 pg/mL and an ITAC [1] of 14.07 pg/mL. For the same compound, the MIP-3a [1] was 8.17 pg/mL, the IL-2 (JC sera Jun. 22, 2020) was 0.04 pg/mL and the IL-4 (JC sera Jun. 22, 2020) was 15.17 pg/mL. For the same compound, the IL-5 (JC sera Jun. 22, 2020) was 2.44 pg/mL, the IL-6 (JC sera Jun. 22, 2020) was 3.33 pg/mL and the IL-7 (JC sera Jun. 22, 2020) was 7.25 pg/mL. For the same compound, the IL-8 (JC sera Jun. 22, 2020) was 5.21 pg/mL, the IL-21 (JC sera Jun. 22, 2020) was 0.86 pg/mL and the IL-23 (JC sera Jun. 22, 2020) was 158.41 pg/mL. For the same compound, the MIP-1a (JC sera Jun. 22, 2020) was 12.15 pg/mL, the MIP-1b (JC sera Jun. 22, 2020) was 24.21 pg/mL and the TNFa (JC sera Jun. 22, 2020) was 9.2 pg/mL. For the same compound, the Franktalkine [2] was 35.49 pg/mL, the GM-CSF [2] was 50.3 pg/mL and the IFNg [2] was 10.42 pg/mL. The IL-1b [2] was 0.91 pg/mL, the IL-10 [2] was 8.54 pg/mL and the IL-12p70 [2] was 2.32 pg/mL. The IL-13 [2] was 5.03 pg/mL, the IL-17A [2] was 6.86 pg/mL and the ITAC [2] was 13.07 pg/mL. The MIP-3a [2] was 10.65 pg/mL, the IL-2 (JC sera Jun. 24, 2020) was 0.17 pg/mL and the IL-4 (JC sera Jun. 24, 2020) was 10.14 pg/mL. For the same compound, the IL-5 (JC sera Jun. 24, 2020) was 2.1 pg/mL, the IL-7 (JC sera Jun. 24, 2020) was 5.13 pg/mL and the IL-8 (JC sera Jun. 24, 2020) was 4.47 pg/mL. For the same compound, the IL-21 (JC sera Jun. 24, 2020) was 0.62 pg/mL, the IL-23 (JC sera Jun. 24, 2020) was 106.21 pg/mL and the MIP-1a (JC sera Jun. 24, 2020) was 12.15 pg/mL. The MIP-1b (JC sera Jun. 24, 2020) was 27.78 pg/mL, the TNFa (JC sera Jun. 24, 2020) was 8.82 pg/mL and the Franktalkine [3] was 35.11 pg/mL. It also gave a GM-CSF [3] of 111.4 pg/mL, an IFNg [3] of 4.58 pg/mL and an IL-1b [3] of 0.77 pg/mL. It also gave an IL-10 [3] of 23.69 pg/mL, an IL-12p70 [3] of 1.64 pg/mL and an IL-13 [3] of 3.95 pg/mL. For the same compound, the IL-17A [3] was 2.46 pg/mL, the ITAC [3] was 10.44 pg/mL and the MIP-3a [3] was 8.55 pg/mL. The IL-2 (JC sera May 7, 2020) was 0.21 pg/mL, the IL-4 (JC sera May 7, 2020) was 7.5 pg/mL and the IL-5 (JC sera May 7, 2020) was 1.77 pg/mL. It also gave an IL-6 (JC sera May 7, 2020) of 1.37 pg/mL, an IL-7 (JC sera May 7, 2020) of 4.06 pg/mL and an IL-8 (JC sera May 7, 2020) of 3.39 pg/mL. The IL-21 (JC sera May 7, 2020) was 0.62 pg/mL, the IL-23 (JC sera May 7, 2020) was 116.26 pg/mL and the MIP-1a (JC sera May 7, 2020) was 10.39 pg/mL. It also gave an MIP-1b (JC sera May 7, 2020) of 16.67 pg/mL, a TNFa (JC sera May 7, 2020) of 7.45 pg/mL and a Franktalkine [4] of 33.33 pg/mL. It also gave a GM-CSF [4] of 58.44 pg/mL, an IFNg [4] of 4.81 pg/mL and an IL-1b [4] of 0.72 pg/mL. The IL-10 [4] was 6.63 pg/mL, the IL-12p70 [4] was 1.6 pg/mL and the IL-13 [4] was 3.99 pg/mL. It also gave an IL-17A [4] of 2.78 pg/mL, an ITAC [4] of 13.07 pg/mL and an MIP-3a [4] of 7.8 pg/mL. It also gave an IL-2 (JC sera May 12, 2020) of 0 pg/mL, an IL-4 (JC sera May 12, 2020) of 10.14 pg/mL and an IL-6 (JC sera May 12, 2020) of 1.76 pg/mL. For the same compound, the IL-7 (JC sera May 12, 2020) was 5.13 pg/mL, the IL-8 (JC sera May 12, 2020) was 4.18 pg/mL and the IL-21 (JC sera May 12, 2020) was 0.62 pg/mL. It also gave an IL-23 (JC sera May 12, 2020) of 92.37 pg/mL, an MIP-1a (JC sera May 12, 2020) of 11.8 pg/mL and an MIP-1b (JC sera May 12, 2020) of 25.53 pg/mL. It also gave a TNFa (JC sera May 12, 2020) of 7.14 pg/mL, an IL-2 (JC sera May 14, 2020) of 8.16 pg/mL and an IL-4 (JC sera May 14, 2020) of 13.73 pg/mL. It also gave an IL-5 (JC sera May 14, 2020) of 1.72 pg/mL, an IL-6 (JC sera May 14, 2020) of 1.07 pg/mL and an IL-7 (JC sera May 14, 2020) of 6.39 pg/mL. It also gave an IL-8 (JC sera May 14, 2020) of 5.32 pg/mL, an IL-21 (JC sera May 14, 2020) of 0.56 pg/mL and an IL-23 (JC sera May 14, 2020) of 106.21 pg/mL. It also gave an MIP-1a (JC sera May 14, 2020) of 12.15 pg/mL, an MIP-1b (JC sera May 14, 2020) of 19.37 pg/mL and a TNFa (JC sera May 14, 2020) of 7.77 pg/mL. The Franktalkine [5] was 31.36 pg/mL, the GM-CSF [5] was 53.64 pg/mL and the IFNg [5] was 4.14 pg/mL. It also gave an IL-1b [5] of 0.8 pg/mL, an IL-10 [5] of 4.47 pg/mL and an IL-12p70 [5] of 1.81 pg/mL. For the same compound, the IL-13 [5] was 4.08 pg/mL, the IL-17A [5] was 2.24 pg/mL and the ITAC [5] was 12.13 pg/mL. For the same compound, the MIP-3a [5] was 6.78 pg/mL, the Franktalkine [6] was 32.65 pg/mL and the GM-CSF [6] was 48.19 pg/mL. The IFNg [6] was 5.58 pg/mL, the IL-1b [6] was 0.8 pg/mL and the IL-10 [6] was 3.7 pg/mL. It also gave an IL-12p70 [6] of 1.72 pg/mL, an IL-13 [6] of 3.99 pg/mL and an ITAC [6] of 15.13 pg/mL. It also gave an MIP-3a [6] of 6.78 pg/mL, an IL-2 (JC sera May 28, 2020) of 0.01 pg/mL and an IL-4 (JC sera May 28, 2020) of 11.8 pg/mL. It also gave an IL-5 (JC sera May 28, 2020) of 2.21 pg/mL, an IL-6 (JC sera May 28, 2020) of 2.03 pg/mL and an IL-7 (JC sera May 28, 2020) of 5.99 pg/mL. It also gave an IL-8 (JC sera May 28, 2020) of 4.47 pg/mL, an IL-21 (JC sera May 28, 2020) of 0.75 pg/mL and an IL-23 (JC sera May 28, 2020) of 144.83 pg/mL. For the same compound, the MIP-1a (JC sera May 28, 2020) was 11.46 pg/mL, the MIP-1b (JC sera May 28, 2020) was 25.53 pg/mL and the TNFa (JC sera May 28, 2020) was 8.64 pg/mL. It also gave a Franktalkine [7] of 37.04 pg/mL, a GM-CSF [7] of 75.6 pg/mL and an IFNg [7] of 8.94 pg/mL. The IL-1b [7] was 0.87 pg/mL, the IL-10 [7] was 6.63 pg/mL and the IL-12p70 [7] was 2.16 pg/mL. The IL-13 [7] was 4.44 pg/mL, the IL-17A [7] was 5.49 pg/mL and the ITAC [7] was 14.77 pg/mL. For the same compound, the MIP-3a [7] was 8.17 pg/mL, the “serum cytokines of ALS patient compared to healthy twin after NAC treatment” value (serum Luminex, Table 137) was “only IFN-g and TNF-α remained higher in ALS patient when compared to healthy twin” and the “change of serum cytokines after NAC treatment” value (serum from ALS patient, Table 138) was “Decrease in respective cytokines”. It also gave a Fractalkine [8] of 39.89, a GCSF [8] of 82.17 and an IFNa2 [8] of 22.87. For the same compound, the IFNg [8] was 21.25, the IL-6 [8] was 14.86 and the IL-12p40 [8] was 15.96. For the same compound, the IL-12p70 [8] was 9.801, the IL-17a [8] was 14.45 and the Rantes [8] was 9578. The TNFa (serum of ALS patient after NAC treatment, in pg/mL) was 29.18.
